# Bridge positions count the residues as written; N and C are the ends. Peptide text beside a SMILES is read from it.
# Test system: ZNRF3
# Assay: SPR binding to ZNRF3 (specificity)
# Details: protein immobilized, untagged DCP injected
# Method: SPR measurement was carried out using a Biacore S200 (Cytiva) instrument, with PBS-T (PBS with 0.05% Tween 20, pH 7.4) as the buffer. Biotinylated protein was captured on three sensor channels of Series S SA Sensors (Cytiva). The sensors were then blocked with 0.1 mg/mL biotin. DCPs were injected onto the sensor in a 3× concentration series. The data were double-referenced by subtracting the signal from a sensor channel coated with biotin only and the signal from a buffer injection. For data analysis, binding data were fitted using the manufacturer’s software. ,
row,Structure (SMILES),binding to ZNRF3
1,"CC[C@H](C)[C@H](NC(=O)[C@@H]1CSSC[C@H](NC(=O)[C@H](CCC(N)=O)NC(=O)[C@@H](NC(=O)[C@H](Cc2ccc(O)cc2)NC(=O)[C@@H](NC(=O)[C@H](CC(C)C)NC(=O)CNC(=O)[C@@H]2CSSC[C@H](NC(=O)[C@H](CCC(N)=O)NC(=O)[C@@H](N)CCC(=O)O)C(=O)N[C@@H](CC(=O)O)C(=O)N[C@@H](CCC(N)=O)C(=O)N[C@@H](CC(=O)O)C(=O)N[C@@H](C)C(=O)N[C@@H](CO)C(=O)N[C@@H](C)C(=O)N2)[C@@H](C)CC)[C@@H](C)O)C(=O)N[C@H]2CSSC[C@H](NC(=O)[C@H](CC(=O)O)NC(=O)[C@H](CC(C)C)NC(=O)[C@@H]3CCCN3C(=O)[C@H](Cc3c[nH]c4ccccc34)NC2=O)C(=O)N[C@@H](CCCNC(=N)N)C(=O)N[C@@H](Cc2c[nH]c3ccccc23)C(=O)N[C@@H](C)C(=O)N[C@@H](C(C)C)C(=O)N[C@@H](CCCCN)C(=O)N[C@@H](Cc2ccc(O)cc2)C(=O)N[C@@H](CCC(N)=O)C(=O)N[C@@H](Cc2c[nH]c3ccccc23)C(=O)N[C@@H](Cc2ccccc2)C(=O)N[C@@H](Cc2c[nH]c3ccccc23)C(=O)N[C@@H](CC(=O)O)C(=O)N1)C(=O)NCC(=O)O [GUR-1.6.12.12] (H-EQCDQDASACGLIYTQCCWPLDCRWAVKYQWFWDCIG-OH; disulfide 3-10, 17-35, 18-23)",lack of binding
2,"CC[C@H](C)[C@H](NC(=O)[C@@H]1CSSC[C@H](NC(=O)[C@H](CCC(N)=O)NC(=O)[C@H](CO)NC(=O)[C@H](Cc2ccc(O)cc2)NC(=O)[C@H](CCCCN)NC(=O)[C@H](Cc2ccccc2)NC(=O)[C@H](CC(N)=O)NC(=O)[C@@H]2CSSC[C@H](NC(=O)[C@H](CCC(N)=O)NC(=O)[C@@H](N)CCC(=O)O)C(=O)N[C@@H](CC(=O)O)C(=O)N[C@@H](CCC(N)=O)C(=O)N[C@@H]([C@@H](C)O)C(=O)N[C@@H](CC(N)=O)C(=O)N[C@@H](CC(C)C)C(=O)N[C@@H](Cc3ccccc3)C(=O)N2)C(=O)N[C@H]2CSSC[C@H](NC(=O)[C@H](CC(=O)O)NC(=O)[C@H](CC(C)C)NC(=O)[C@@H]3CCCN3C(=O)[C@H](Cc3c[nH]c4ccccc34)NC2=O)C(=O)N[C@@H](CCCNC(=N)N)C(=O)N[C@@H](Cc2c[nH]c3ccccc23)C(=O)N[C@@H](C)C(=O)N[C@@H](C(C)C)C(=O)N[C@@H](CCCCN)C(=O)N[C@@H](Cc2ccc(O)cc2)C(=O)N[C@@H](CCC(N)=O)C(=O)N[C@@H](Cc2c[nH]c3ccccc23)C(=O)N[C@@H](Cc2ccccc2)C(=O)N[C@@H](Cc2c[nH]c3ccccc23)C(=O)N[C@@H](CC(=O)O)C(=O)N1)C(=O)NCC(=O)O [GUR-1.6.12.4] (H-EQCDQTNLFCNFKYSQCCWPLDCRWAVKYQWFWDCIG-OH; disulfide 3-10, 17-35, 18-23)",lack of binding
3,"CC[C@H](C)[C@H](NC(=O)[C@@H]1CSSC[C@H](NC(=O)[C@H](CO)NC(=O)[C@H](Cc2c[nH]cn2)NC(=O)[C@@H](NC(=O)[C@@H]2CCCN2C(=O)[C@H](CCC(N)=O)NC(=O)[C@@H](NC(=O)[C@@H]2CSSC[C@H](NC(=O)[C@H](CCC(N)=O)NC(=O)[C@@H](N)CCC(=O)O)C(=O)N[C@@H](CCCNC(=N)N)C(=O)N[C@@H](CCC(=O)O)C(=O)N[C@@H](Cc3c[nH]cn3)C(=O)N[C@@H](Cc3ccccc3)C(=O)N[C@@H](Cc3c[nH]cn3)C(=O)N[C@@H](CC(=O)O)C(=O)N2)C(C)C)[C@@H](C)CC)C(=O)N[C@H]2CSSC[C@H](NC(=O)[C@H](CC(=O)O)NC(=O)[C@H](CC(C)C)NC(=O)[C@@H]3CCCN3C(=O)[C@H](Cc3c[nH]c4ccccc34)NC2=O)C(=O)N[C@@H](CCCNC(=N)N)C(=O)N[C@@H](Cc2c[nH]c3ccccc23)C(=O)N[C@@H](C)C(=O)N[C@@H](C(C)C)C(=O)N[C@@H](CCCCN)C(=O)N[C@@H](Cc2ccc(O)cc2)C(=O)N[C@@H](CCC(N)=O)C(=O)N[C@@H](Cc2c[nH]c3ccccc23)C(=O)N[C@@H](Cc2ccccc2)C(=O)N[C@@H](Cc2c[nH]c3ccccc23)C(=O)N[C@@H](CC(=O)O)C(=O)N1)C(=O)NCC(=O)O [GUR-1.6.12.16] (H-EQCREHFHDCVQPIHSCCWPLDCRWAVKYQWFWDCIG-OH; disulfide 3-10, 17-35, 18-23)",lack of binding

# Source: article PMC12464775, “Selective and Potent Peptide Binders of RNF43 for Wnt Signaling Inhibition” (ACS Central Science, 2025)
